According to ChEMBL document CHEMBL6177930, “2-(4-Bromobenzyl) tethered 4-amino aryl/alkyl-5,6,7,8-tetrahydrobenzo[4,5]thieno[2,3-d]pyrimidines: design, synthesis, anticancer assessment via dual topoisomerase-I/II inhibition, and in silico studies” (RSC Med Chem, 2025):
Calls of active or inactive are those of the source. The rule behind the calls is not given here.

How the values were obtained:
Mitochondrial membrane = test: Induction of mitochondrial membrane potential loss in human FaDu cells assessed as decrease in green fluorescence incubated for 48 hrs by Rhodamine 123 staining based fluorescence microscopy analysis; format: cell membranes; settings: dose 1-5 µM
FaDu [1] = test: Induction of autophagy in human FaDu cells assessed as increase in acidic vesicular organelles measured after 48 hrs by acridine orange staining based fluorescence microscopy analysis; format: functional, cell-based; settings: dose 1-5 µM
FaDu [2] = test: Induction of apoptosis in human FaDu cells assessed as apoptotic bodies at 1 to 5 uM by DAPI staining based analysis; format: functional, cell-based; settings: dose 1-5 µM
FaDu [3] = test: Induction of apoptosis in human FaDu cells assessed as appearance of deformed cell membrane at 1 to 5 uM by DAPI staining based analysis; format: functional; settings: dose 1-5 µM
MCF7 [4] = test: Antiproliferative activity against human MCF7 cells assessed as inhibition of cell growth at 10 uM measured after 48 to 72 hrs by MTT assay relative to control; format: functional; settings: time 48-72 hrs
MDA-MB-231 = test: Antiproliferative activity against human MDA-MB-231 cells assessed as inhibition of cell growth at 10 uM measured after 48 to 72 hrs by MTT assay relative to control; format: functional; settings: time 48-72 hrs
FaDu [5] = test: Antiproliferative activity against human FaDu cells assessed as inhibition of cell growth measured after 72 hrs by MTT assay; format: functional, cell-based
FaDu [6] = test: Induction of morphological changes in human FaDu cells assessed as reduction in cell density at 1 uM incubated for 48 hrs by bright field microscope based analysis; format: functional
FaDu [7] = test: Induction of morphological changes in human FaDu cells assessed as appearance of rounded cells at 1 uM incubated for 48 hrs by bright field microscope based analysis; format: functional, cell-based
FaDu [8] = test: Induction of morphological changes in human FaDu cells assessed as appearance of detached cells at 1 uM incubated for 48 hrs by bright field microscope based analysis; format: functional, cell-based
FaDu [9] = test: Induction of apoptosis in human FaDu cells assessed as nuclear changes at 1 to 5 uM by DAPI staining based analysis; format: functional, cell-based; settings: dose 1-5 µM
FaDu [10] = test: Inhibition of cell migration in human FaDu cells assessed as reduction in wound closure at 1 to 2 uM measured after 48 hrs by bright field microscopic analysis; format: functional, cell-based; settings: dose 1-2 µM
FaDu [11] = test: Upregulation of LC3A/B level in human FaDu cells measured after 48 hrs by Western blot analysis; format: functional, cell-based; settings: dose 1-5 µM
FaDu [12] = test: Upregulation of cleaved caspase-3 level in human FaDu cells measured after 48 hrs by Western blot analysis; format: functional, cell-based; settings: dose 1-5 µM
MCF7 [13] = test: Inhibition of oxidative stress in human MCF7 cells assessed as reduction in ROS production incubated for 24 hrs by DCFH-DA staining based flow cytometry analysis; format: functional, cell-based
MCF7 [14] = test: Induction of cell cycle arrest in human MCF7 cells assessed as accumulation of cells at S phase measured after 24 hrs by PI staining based flow cytometry analysis (reference value: 24.7%); format: functional
MCF7 [15] = test: Induction of cell cycle arrest in human MCF7 cells assessed as accumulation of cells at G2/M phase measured after 24 hrs by PI staining based flow cytometry analysis (reference value: 14.2%); format: functional
[16] = target: T1, Prostaglandin G/H synthase 1 (Ovis aries) (UniProt P05979); test: Inhibition of ovine COX-1 at 10 uM relative to control
T1 sequence (whole entry): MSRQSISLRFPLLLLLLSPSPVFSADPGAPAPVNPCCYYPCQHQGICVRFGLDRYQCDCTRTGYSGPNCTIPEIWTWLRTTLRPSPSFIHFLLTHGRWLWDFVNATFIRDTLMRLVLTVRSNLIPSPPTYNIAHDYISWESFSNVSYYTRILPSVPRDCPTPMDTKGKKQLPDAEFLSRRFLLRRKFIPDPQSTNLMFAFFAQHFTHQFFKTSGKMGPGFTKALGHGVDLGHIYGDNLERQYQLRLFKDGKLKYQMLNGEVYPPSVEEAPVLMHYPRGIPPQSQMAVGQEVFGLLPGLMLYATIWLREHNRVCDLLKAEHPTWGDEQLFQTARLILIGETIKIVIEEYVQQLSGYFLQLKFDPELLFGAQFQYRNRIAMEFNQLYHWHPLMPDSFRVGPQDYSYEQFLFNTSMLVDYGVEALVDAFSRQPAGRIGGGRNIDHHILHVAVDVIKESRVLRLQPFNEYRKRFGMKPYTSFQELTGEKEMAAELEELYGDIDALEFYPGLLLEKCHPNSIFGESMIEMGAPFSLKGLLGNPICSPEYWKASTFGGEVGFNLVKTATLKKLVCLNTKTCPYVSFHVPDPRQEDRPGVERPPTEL

Activity (Mitochondrial membrane): Dose-dependent-effect
inhibition [16]: 46.5%
SMILES: Brc1ccc(Cc2nc(N3CCN(c4ccncc4)CC3)c3c4c(sc3n2)CCCC4)cc1
Activity (FaDu [1]): Dose-dependent-effect
Activity (FaDu [2]): Active
Activity (FaDu [3]): Active
inhibition at 10 µM (MCF7 [4]): 15.1%
inhibition at 10 µM (MDA-MB-231): 6.27%
IC50 (FaDu [5]): 1.73 µM
Activity (FaDu [5]; dose 0.5-50 µM): Dose-dependent-effect
Activity (FaDu [6]): Active
Activity (FaDu [7]): Active
Activity (FaDu [8]): Active
Activity (FaDu [9]): Active
inhibition (FaDu [10]): Active
Activity (FaDu [11]): Dose-dependent-effect
Activity (FaDu [12]): Dose-dependent-effect
inhibition (MCF7 [13]): Active
Activity (MCF7 [14]): 17.8%
Activity (MCF7 [15]): 52.8%
